Assays:
[1] = Cytotoxicity towards healthy cell line; type: cell-based, monkey; settings: monkey, COS-7 kidney cells; COS7; 25 μM; read-out: % of Inhibition (cytotoxic screening)
[2] = tested on: SKLU-1 (human lung adenocarcinoma); assay: Cytotoxicity, sulforhodamine B (SRB) microculture assay; type: cell-based; settings: Homo sapiens, SK-LU-1, 25 μM, read-out: % of Inhibition (cytotoxic screening)
Protocol: (§1) The cytotoxicity of all compounds was tested against six cancer cell lines: U251 (human glioblastoma cell line), PC-3 (human prostate adenocarcinoma), K562 (human chronic myelogenous leukemia), HCT-15 (human colon adenocarcinoma), MCF-7 (human mammary adenocarcinoma), and SKLU-1 (human lung adenocarcinoma). Cell lines were supplied by the U.S. National Cancer Institute (NCI). The cell lines were cultured in an RPMI-1640 medium supplemented with 10% fetal bovine serum, […] L-glutamine, 10,000 units/mL penicillin G sodium, 10,000 µg/mL streptomycin sulfate, 25 µg/mL amphotericin B (Invitrogen/Gibco™, Thermo Fisher Scientific, Waltham, MA, USA), and 1% non-essential amino acids (Gibco). They were maintained at 37 °C in a humidified atmosphere with 5% CO2. […] The human tumor cytotoxicity was determined using the protein-binding dye sulforhodamine B (SRB) in a microculture assay to measure cell growth, as described in the protocols established by the NCI [39, 40, 41].

[3] = tested on: PC-3 (human prostate adenocarcinoma); assay: as above; type: cell-based; settings: Homo sapiens, 25 μM, read-out: % of Inhibition (cytotoxic screening)
Protocol: as §1

[4] = tested on: U251 (human glioblastoma cell line); assay: as above; type: cell-based; settings: Homo sapiens, U-251, 25 μM, read-out: % of Inhibition (cytotoxic screening)
Protocol: as §1

[5] = tested on: HCT-15 (human colon adenocarcinoma); assay: as above; type: cell-based; settings: Homo sapiens, 25 μM, read-out: % of Inhibition (cytotoxic screening)
Protocol: as §1

[6] = tested on: MCF-7 (human mammary adenocarcinoma); assay: as above; type: cell-based; settings: Homo sapiens, MCF7, 25 μM, read-out: % of Inhibition (cytotoxic screening)
Protocol: as §1

[7] = tested on: K562 (human chronic myelogenous leukemia); assay: as above; type: cell-based; settings: Homo sapiens, 25 μM, read-out: % of Inhibition (cytotoxic screening)
Protocol: as §1

[8] = tested on: lipid peroxidation in rat brain homogenate; assay: Inhibition of lipid peroxidation (TBARS) in rat brain homogenate, FeSO4-induced; type: biochemical
Protocol: Adult male Wistar rats (200–250 g) were provided by the Instituto de Fisiología Celular, Universidad Nacional Autónoma de México (UNAM). The procedures and care of animals were conducted in conformity with the Mexican Official Norm for Animal Care and Handling NOM-062-ZOO-1999. They were maintained at 23 ± 2 °C on a 12/12 h light-dark cycle with ad libitum access to food and water.
Animal sacrifice was carried out avoiding unnecessary pain. The rats were sacrificed with CO2. The cerebral tissue (whole brain) was rapidly dissected and homogenized in phosphate-buffered saline (PBS) solution (0.2 g of KCl, 0.2 g of KH2PO4, 8 g of NaCl, and 2.16 g of NaHPO4.7H2O/L, pH adjusted to 7.4) as described elsewhere to produce a 1/10 (w/v) homogenate. The homogenate was centrifuged at 800 rcf (relative centrifugal field) for 10 min. The supernatant protein content was measured using Folin and Ciocalteu’s phenol reagent and adjusted with PBS at 2.666 mg of protein/mL.
As an index of lipid peroxidation, TBARS levels were measured using rat brain homogenates according to the method described by Ng and co-workers, with some modifications. A supernatant (375 µL) was added with 50 µL of 20 µM EDTA and 25 µL of each sample concentration dissolved in DMSO (25 µL of DMSO for the control group) and incubated at 37 °C for 30 min. The lipid peroxidation was started adding 50 µL of freshly prepared 100 µM FeSO4 solution (final concentration 10 µM) and incubated at 37 °C for 1h. The TBARS measurements were obtained as described by Ohkawa and co-workers, with some modifications. To each tube 500 µL of TBA reagent (0.5% 2-thiobarbituric acid in 0.05 N NaOH and 30% trichloroacetic acid, in 1:1 ratio) was added and the final suspension was cooled on ice for 10 min, centrifuged at 13,400 rcf for 5 min and heated at 80 °C in a water bath for 30 min. After cooling at room temperature, the absorbance of 200 µL of supernatant was measured at λ = 540 nm in a Microplate Reader Synergy/HT BIOTEK Instrument, Inc., Winooski, VT, USA. The concentration of TBARS was calculated by interpolation on a standard curve of tetra-methoxypropane (TMP) as a precursor of MDA [38]. Results are expressed as n moles of TBARS per mg of protein. The inhibition ratio (IR [%]) was calculated using the formula IR = (C − E) × 100/C, where C is the control absorbance and E is the sample absorbance. Butylated hydroxytoluene (BHT) and α tocopherol were used as positive standards. All data are presented as mean ± standard error (SEM). The data were analyzed by one-way analysis of variance (ANOVA) followed by Dunnett’s test for comparison against a control. Values of p ≤ 0.05 (*) and p ≤ 0.01 (**) were considered statistically significant.

Structure (SMILES): O=C(/C=C(O)/C=C/c1cccs1)/C=C/c1cccs1 [ThiopheneCurc, Thiophenecurcumin]
- inhibition at 25 µM [1]: 0%
- inhibition at 25 µM [2]: 0%
- inhibition at 25 µM [3]: 14.8%
- inhibition at 25 µM [4]: 0%
- inhibition at 25 µM [5]: 0%
- inhibition at 25 µM [6]: 13.4%
- inhibition at 25 µM [7]: 4.4%
- Inhibition (%) of lipid peroxidation ([8]; 10 μM, mean ± SEM, n = 3): 17.68 ± 0.97%
- TBARS ([8]; 10 μM, mean ± SEM, n = 3): 4.398 ± 0.177 nmol/mg prot.
- Inhibition (%) of lipid peroxidation ([8]; 17.78 μM, mean ± SEM, n = 3): 40.94 ± 0.36%
- TBARS ([8]; 17.78 μM, mean ± SEM, n = 3): 3.157 ± 0.139 nmol/mg prot.
- Inhibition (%) of lipid peroxidation ([8]; 31.62 μM, mean ± SEM, n = 3): 61.81 ± 1.08%
- TBARS ([8]; 31.62 μM, mean ± SEM, n = 3): 2.042 ± 0.116 nmol/mg prot.
- Inhibition (%) of lipid peroxidation ([8]; 56.23 μM, mean ± SEM, n = 3): 71.25 ± 1.79%
- TBARS ([8]; 56.23 μM, mean ± SEM, n = 3): 1.528 ± 0.035 nmol/mg prot.
- Inhibition (%) of lipid peroxidation ([8]; 100 μM, mean ± SEM, n = 3): 73.06 ± 3.06%
- TBARS ([8]; 100 μM, mean ± SEM, n = 3): 1.425 ± 0.094 nmol/mg prot.
- Inhibition (%) of lipid peroxidation ([8]; 177.83 μM, mean ± SEM, n = 3): 66.63 ± 3.83%
- TBARS ([8]; 177.83 μM, mean ± SEM, n = 3): 1.766 ± 0.119 nmol/mg prot.
- % of Inhibition (lipoperoxidation screening) ([8]; concentration 1 (unit not given)): 0.23%
- % of Inhibition (lipoperoxidation screening) ([8]; concentration 10 (unit not given)): 25.43%
- % of Inhibition (lipoperoxidation screening) ([8]; concentration 100 (unit not given)): 51.90%
- IC50 ([8]; rat brain homogenate, TBARS, mean ± SEM, n = 3): 22.02 ± 0.15 µM

— publication PMC9919861, “Homoleptic Complexes of Heterocyclic Curcuminoids with Mg(II) and Cu(II): First Conformationally Heteroleptic Case, Crystal Structures, and Biological Properties” (Molecules, 2023)
